The subject of one test is OK-CTLp or OK-CTL clone. The test can be described thus: Recognition of peptide-pulsed T2 cells by OK-CTLp or OK-CTL clone (IFN-γ ELISA). The test is classed as cell-based, human. For orientation: ELISA stands for enzyme-linked immunosorbent assay.
Test [1] relates to peripheral blood mononuclear cells derived from a cancer patient. The test can be described thus: CTL induction by peptide from autologous PBMC of cancer patient, IFN-γ production on recognition of target cells (Example 5). The format is cell-based, human. Particulars: for Recognition of tumor cells by PBMC stimulated in vitro with peptide (IFN-γ production): SW620, CA9-22 and Panc-1 HLA-A2+ tumor cells, result in words; for IFN-γ production from peripheral blood mononuclear cells in recognition of target cells: PBMC stimulated with 10 μM peptide. The source says: Among the peptides that were able to enhance IFN-γ production from the OK-CTLp or OK-CTL clone in Example 4, those from P1 to P19 were examined for their ability to induce CTL from peripheral blood mononuclear cells derived from a cancer patient. The method for inducing CTL by a peptide was according to the well-known method (J. Exp. Med., 187:277-288, 1998; Cancer Res., 59:4056-4063, 1999.) Specifically, autologous peripheral blood mononuclear cells (PBMC) derived from a cancer patient, from whom OK-CTLp was obtained, were incubated together with the peptide (10 μM.) The cells were re-stimulated at day 10 and 14 after the start of culturing, using autologous PBMCs as an antigen presenting cell (APC) which were pulsed with 10 μM of the same peptide for 2 h and exposed to irradiation (30 gray.) At day 21 after the start of culturing, the cells were collected to test for surface phenotype. In addition, the cells were examined for the recognition of various target cells, using IFN-γ production measured by ELISA when they were cultured together with the target cells as an indicator. As a target cells, SW620 cell, CA9-22 cell, and Panc-1 cell, which are the HLA-A2^+ tumor cells, were used.

Test [2] shares this test system. The description is as above. The test is classed as cell-based, human. The following applies: PBMC stimulated with 10 μM peptide.
In test [3] the test system is human peripheral blood mononuclear cells (PBMC). The test can be described thus: CTL induction by peptide from PBMC of HLA-A2-positive cancer patients and healthy individuals, IFN-γ against peptide-pulsed T2 cells (Example 6). Particulars: for INF-γ production: peptide-pulsed T2 cells. The format is cell-based. The method, then: For six peptides (P21, P22, P24, P26, P30, and P32) with a purity of 95% or higher among peptides from P20 to P32 derived from gene 7 and CPSF among the tumor antigen peptide obtained in Example 4, the activity to induce CTL in vitro from human peripheral blood mononuclear cells (PBMC) was examined using IFN-γ production as an indicator. PBMC used was prepared from each peripheral blood of sixteen HLA-A2-positive cancer patients (4 patients with pancreatic cancer, seven patients with stomach cancer, and 5 patients with colon cancer) and six healthy individuals. Specifically, 1×10^5 PBMC was added to each well of 96-well U-bottom type microculture plate (Nunc Corp.) and incubated together with 10 μM of each of the above-described peptides in 200 μl culture medium. The culture medium consisted of 45% RPMI-1640, 45% AIM-V (Invitrogen Corp.,) 10% fetal calf serum (FCS), 100U/ml of human interleukin-2, and […] MEM nonessential amino acid solution (Invitrogen Corp.). At day 4 and day 7 after the start of culturing, half of the culture medium was removed and replaced with the above-described composition containing each corresponding peptide. At day 10 after the start of culturing, the cells were collected and washed, followed by reacting with T2 cells, which were pulsed with each corresponding peptide, to measure the amount of IFN-γ produced.

For test [4], the system named is Panc-1 pancreatic adenocarcinoma cell (HLA-A2). The test can be described thus: 6-h 51Cr-releasing test of peptide-stimulated PBMC against Panc-1 (Example 6). The following applies: PBMC of colon cancer patient 12; Panc-1, E/T 10:1. The format is cell-based, human. The method, then:
Meanwhile, the above-described cells cultured for 10 days after stimulation by the peptide were further cultured for 10 days. The cytotoxicity of the obtained cells against the Panc-1 pancreatic adenocarcinoma cell (HLA-A2) was measured by the standard 6-h ^51Cr-releasing test in an E/T ratio of 10:1. The results obtained are presented as % specific lysis (table 7). Together with this step, cytotoxicity against SSTW-9 tumor cell as the HLA-A2^− tumor cell was measured to use as a background that was subtracted from the above-described result.

[5] abbreviates: concentration of peptide 0.1 μM.

Consider LLLKYTEKL [Peptide P24], for which the IFN-γ production with OK-CTLp or OK-CTL clone (setting [5]) came out at 728 pg/mL; in the test with OK-CTLp or OK-CTL clone (concentration of peptide 10 μM), 103 pg/mL; with OK-CTLp or OK-CTL clone (concentration of peptide 50 μM), 2 pg/mL.
In the case of ELLNRYLYL [Peptide P27], the IFN-γ production in the test on OK-CTLp or OK-CTL clone (setting [5]) came to 352 pg/mL; in the test with OK-CTLp or OK-CTL clone (concentration of peptide 1 μM), 889 pg/mL; with OK-CTLp or OK-CTL clone (concentration of peptide 10 μM), 250 pg/mL; in the test on OK-CTLp or OK-CTL clone (concentration of peptide 50 μM), 0 pg/mL.
Consider “LIMLQNALTT (LLMLQNALTT; Designed peptide having an ability to activate HLA-A2 restricted Cytotoxic T lymphocytes) [Peptide P31, Gene 7 1358-1367]”, for which the IFN-γ production in the test on OK-CTLp or OK-CTL clone (setting [5]) stood at 443 pg/mL; in the test on OK-CTLp or OK-CTL clone (concentration of peptide 50 μM) it was 314 pg/mL.
For the sequence LIMLQNALT [Peptide P28], the IFN-γ production in the test with OK-CTLp or OK-CTL clone (setting [5]) was found to be 898 pg/mL; in the test with OK-CTLp or OK-CTL clone (concentration of peptide 10 μM), 0 pg/mL; with OK-CTLp or OK-CTL clone (concentration of peptide 50 μM), 144 pg/mL.
As to SLLYLNQSV [Peptide P20], the IFN-γ production is 344 pg/mL in the test on OK-CTLp or OK-CTL clone (setting [5]), 643 pg/mL in the test with OK-CTLp or OK-CTL clone (concentration of peptide 1 μM), 0 pg/mL in the test with OK-CTLp or OK-CTL clone (concentration of peptide 10 μM) and 34 pg/mL in the test with OK-CTLp or OK-CTL clone (concentration of peptide 50 μM).
For the sequence “ILPRKHHRI (Designed peptide having an ability to activate HLA-A2 restricted Cytotoxic T lymphocytes) [Peptide P5, Gene 1 (UBE2V) 208-216]”, the “Recognition of tumor cells by PBMC stimulated in vitro with peptide (IFN-γ production)” value (from here on “Recognition of tumor cells”) in test [1] was “produced IFN-γ in a significant amount”. Moreover, the “IFN-γ production from peripheral blood mononuclear cells in recognition of target cells” value (from here on “IFN-γ production … of target cells”) in test [1] (target CA9-22 (HLA-A0207/24)) came out at 96 pg/mL; in test [1] (target Panc-1 (HLA-A0201/11)), 638 pg/mL; in test [1] (target SW620 (HLA-A0201/24)), 500 pg/mL; in test [2] (target COLO320 (HLA-A24/24)), 38 pg/mL; in test [2] (target QG56 (HLA-A26/26)) it was 0 pg/mL; in test [2] (target RERF-LC-MS (HLA-A11/11)), 0 pg/mL.
“LLLLARWEDT (Designed peptide having an ability to activate HLA-A2 restricted Cytotoxic T lymphocytes) [Peptide P2, Gene 1 (UBE2V) 64-73]”: the “Recognition of tumor cells” value in test [1] was “induced CTL recognizing any one of the HLA-A2^+ tumor cells”. In addition, the “IFN-γ production … of target cells” value in test [1] (target CA9-22 (HLA-A0207/24)) was found to be 0 pg/mL; in test [1] (target Panc-1 (HLA-A0201/11)), 0 pg/mL; in test [1] (target SW620 (HLA-A0201/24)) it was 53 pg/mL; in test [2] (target COLO320 (HLA-A24/24)) it was 5 pg/mL; in test [2] (target QG56 (HLA-A26/26)), 0 pg/mL; in test [2] (target RERF-LC-MS (HLA-A11/11)), 0 pg/mL.
“FMFGQKLNV (Designed peptide having an ability to activate HLA-A2 restricted Cytotoxic T lymphocytes) [Peptide P8, Gene 2 (HNRPL) 443-451]”: the “Recognition of tumor cells” value in test [1] is given as “produced IFN-γ in a significant amount”. The “IFN-γ production … of target cells” value in test [1] (target CA9-22 (HLA-A0207/24)) is 165 pg/mL; in test [1] (target Panc-1 (HLA-A0201/11)), 186 pg/mL; in test [1] (target SW620 (HLA-A0201/24)), 142 pg/mL; in test [2] (target COLO320 (HLA-A24/24)), 0 pg/mL; in test [2] (target QG56 (HLA-A26/26)) it was 0 pg/mL; in test [2] (target RERF-LC-MS (HLA-A11/11)) it was 26 pg/mL.
In the case of “TQLATYSFEV (Designed peptide having an ability to activate HLA-A2 restricted Cytotoxic T lymphocytes) [Peptide P32, CPSF 456-465]”, the INF-γ production in test [3] (PBMC of colon cancer patient 12) was 57 pg/mL; in test [3] (PBMC of colon cancer patient 13), 0 pg/mL; in test [3] (PBMC of colon cancer patient 14), 0 pg/mL; in test [3] (PBMC of colon cancer patient 15), 0 pg/mL; in test [3] (PBMC of colon cancer patient 16), 4 pg/mL; in test [3] (PBMC of healthy individual HD1), 0 pg/mL. Also, the INF-γ production in test [3] (PBMC of healthy individual HD2), in test [3] (PBMC of healthy individual HD3), in test [3] (PBMC of healthy individual HD4), in test [3] (PBMC of healthy individual HD5), in test [3] (PBMC of healthy individual HD6) and in test [3] (PBMC of pancreatic cancer patient 1) was 0 pg/mL throughout. The INF-γ production in test [3] (PBMC of pancreatic cancer patient 2) was 12 pg/mL; in test [3] (PBMC of pancreatic cancer patient 3), 0 pg/mL; in test [3] (PBMC of pancreatic cancer patient 4), 0 pg/mL; in test [3] (PBMC of stomach cancer patient 5), 0 pg/mL; in test [3] (PBMC of stomach cancer patient 6) it was 0 pg/mL; in test [3] (PBMC of stomach cancer patient 7) it was 0 pg/mL. In addition, the INF-γ production in test [3] (PBMC of stomach cancer patient 8), in test [3] (PBMC of stomach cancer patient 9), in test [3] (PBMC of stomach cancer patient 10) and in test [3] (PBMC of stomach cancer patient 11) was 0 pg/mL each time. Moreover, the “Patients in whom peptide-specific HLA-A2-restricted CTL were induced from PBMC” value in test [3] (sixteen HLA-A2-positive cancer patients) was 7%. For the same sequence, in test [4], the “% specific lysis” value was 18%.
Take YQLPDWRLV [Peptide P29]: the figures for the IFN-γ production in the test with OK-CTLp or OK-CTL clone (setting [5]), with OK-CTLp or OK-CTL clone (concentration of peptide 10 μM) and with OK-CTLp or OK-CTL clone (concentration of peptide 50 μM) were 0 pg/mL, 86 pg/mL and 362 pg/mL, respectively.
Regarding “CLYGNVEKV (Designed peptide having an ability to activate HLA-A2 restricted Cytotoxic T lymphocytes) [Peptide P7, Gene 2 (HNRPL) 404-412]”, the “Recognition of tumor cells” value in test [1] is “induced CTL recognizing any one of the HLA-A2^+ tumor cells”. Also, the “IFN-γ production … of target cells” value was 0 pg/mL in test [1] (target CA9-22 (HLA-A0207/24)); 54 pg/mL in test [1] (target Panc-1 (HLA-A0201/11)); 344 pg/mL in test [1] (target SW620 (HLA-A0201/24)); 0 pg/mL in test [2] (target COLO320 (HLA-A24/24)); 0 pg/mL in test [2] (target QG56 (HLA-A26/26)); 0 pg/mL in test [2] (target RERF-LC-MS (HLA-A11/11)).
Consider TMLPHHAGL [Peptide P25], for which the IFN-γ production in the test with OK-CTLp or OK-CTL clone (setting [5]) was 69 pg/mL; in the test on OK-CTLp or OK-CTL clone (concentration of peptide 1 μM), 1569 pg/mL; in the test with OK-CTLp or OK-CTL clone (concentration of peptide 10 μM), 25 pg/mL; in the test with OK-CTLp or OK-CTL clone (concentration of peptide 50 μM), 122 pg/mL.

Values taken from US7524930B2, “Tumor antigen” (Green Peptide Co., Ltd, priority 2003, dated 2009).
